Results reported in paper PMC12475274, “Harnessing indole scaffolds to identify small-molecule IRE1α inhibitors modulating XBP1 mRNA splicing” (Nature Communications, 2025).
Several values for one entry are separate records, joined by “and”; a condition that tells them apart may be missing. Identical values can stand only once.

Legend:
[1] = test system: IRE1α transcription level in A549 cells; assay: RT-qPCR of IRE1α transcription level, A549; assay type: cell-based, human; conditions: A549
Method: (§1) A549 cells, HCT 116 cells, and HT-29 cells were collected and seeded in 6-well plates at a density of 5 × 10^5 cells per well and cultured overnight to attach, then treated with compound or DMSO for 2 h, then 0.5 μg/mL final concentration of tunicamycin (Tm, MP Biomedi, 0215002805) were added to induce the ER stress for 2 h. After treatment, total RNA was purified using an RNeasy mini kit (Qiagen, 74106). 500 ng of total RNA was used for reverse transcription using the High-Capacity cDNA Reverse Transcription Kits (Thermo Fisher, 4368814). cDNA was diluted 1: 5 using RNase-free water, and 1 μL CDNA was used for each qPCR reaction. The qPCR was performed using PowerUp™ SYBR™ Green Master Mix (Thermo Fisher, A25742) with 10 µL reaction volume using Bio-Rad CFX96 Real-Time PCR Detection System following the standard cycling mode (primer Tm ≥ 60 °C) on the manufacturer’s protocol. Data was analyzed using the 2^- ΔΔCt method. The primers used are listed in Supplementary Table S3. The inhibition % was calculated by using the equation: inhibition% = 100× (normalized Tm control - normalized of the sample)/(normalized Tm control - normalized DMSO control). Tm control: Cells treated with tunicamycin; DMSO control: Cells treated with DMSO only.

[2] = test system: IRE1α transcription level in HCT 116 cells; assay: RT-qPCR of IRE1α transcription level, HCT 116; assay type: cell-based, human; conditions: HCT116
Method: as §1

[3] = test system: IRE1α transcription level in HT-29 cells; assay: RT-qPCR of IRE1α transcription level, HT-29; assay type: cell-based, human; conditions: HT-29
Method: as §1

[4] = test system: XBP1 mRNA splicing in HT-29 cells; assay: RT-qPCR of ER stress-induced XBP1 mRNA splicing, HT-29; assay type: cell-based, human; conditions: HT-29
Method: as §1

[5] = test system: XBP1 mRNA splicing in HCT 116 cells; assay: RT-qPCR of ER stress-induced XBP1 mRNA splicing, HCT 116; assay type: cell-based, human; conditions: HCT116
Method: as §1

[6] = test system: XBP1 mRNA splicing in A549 cells; assay: RT-qPCR of ER stress-induced XBP1 mRNA splicing, A549; assay type: cell-based, human; conditions: Fig. 7c, 0.5μg/mL Tm, individual replicates
Method: as §1

IRE1α = conditions: Fig. 1b; read-out: IC50 of reported IRE1α inhibitor; cited from earlier work
[7] = molecular target: T1, phosphorylated IRE1α (p-IRE1α) (Homo sapiens, UniProt O75460); assay: FRET-based IRE1α RNase activity assay, phosphorylated IRE1α; assay type: biochemical
T1 construct: Human IRE1α kinase and RNase domain (residues 547–977) was subcloned into pLIB plasmid; His tag (with TEV cleavage site) (N, cleaved yes); made in house; host or cells: Sf9 insect cells, baculovirus (Bac-to-Bac)
T1 sequence (O75460 547-977): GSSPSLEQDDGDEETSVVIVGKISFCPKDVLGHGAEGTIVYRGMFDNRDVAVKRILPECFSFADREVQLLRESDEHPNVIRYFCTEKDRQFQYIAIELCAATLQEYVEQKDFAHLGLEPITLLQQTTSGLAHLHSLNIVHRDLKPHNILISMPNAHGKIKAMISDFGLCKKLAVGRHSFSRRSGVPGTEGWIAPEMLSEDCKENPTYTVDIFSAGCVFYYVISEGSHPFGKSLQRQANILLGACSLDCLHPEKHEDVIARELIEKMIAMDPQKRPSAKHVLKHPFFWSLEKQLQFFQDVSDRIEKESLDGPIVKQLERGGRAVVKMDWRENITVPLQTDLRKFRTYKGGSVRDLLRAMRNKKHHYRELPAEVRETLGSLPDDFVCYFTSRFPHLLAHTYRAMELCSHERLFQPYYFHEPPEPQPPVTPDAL
Method in brief: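 Sf9-expressed IRE1α kinase-RNase domain (residues 547–977), fully phosphorylated fraction, 4 nM, preincubated with compound 30 min at RT, then 200 nM FAM/BHQ1 XBP1 RNA added in HEPES pH 7.5 buffer. Fluorescence (ex 485/em 535 nm) read kinetically for 1 h at RT; inhibition from linear slopes, IC50 by concentration-response fit.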

[8] = molecular target: T2, p-IRE1α dimerization and oligomerization (Homo sapiens, UniProt O75460); assay: DSS cross-linking assay with mass photometry; conditions: 100 μM compound, DSS crosslinking
T2 construct: Human IRE1α kinase and RNase domain (residues 547–977) was subcloned into pLIB plasmid; His tag (with TEV cleavage site) (N, cleaved yes); made in house; host or cells: Sf9 insect cells, baculovirus (Bac-to-Bac)
T2 sequence (O75460 547-977): as above
Method: Phosphorylated IRE1α (p-IRE1α) and compounds were incubated 30 min at room temperature, with a final concentration of 2 μM p-IRE1α and 100 μM of the indicated compound, in a buffer containing 20 mM HEPES, pH 7.5, 50 mM KOAc, 1 mM MgOAc2, 1 mM DTT, 0.05% v/v TritonX-100, in a total reaction volume of 20 μL. After incubation, DSS (disuccinimidyl suberate, Thermo Fisher, A39267) was added to the reaction at a final concentration of 250 μM to induce crosslinking at room temperature for 1 h. Tris (pH 7.5) was added to a final concentration of 50 mM to stop the reaction. Samples were further measured with a mass photometry instrument (Refeyn Ltd). The PBS buffer was used for the mass photometry measurement. The instrument was calibrated with BSA and TG protein mixture in PBS. Samples were diluted to a protein concentration of 100 nM with buffer before measurement. Then, 18 μL PBS buffer was added to the center of the gasket on the coverslips to check and find the focus. Afterward, 2 μL of the diluted sample was added, mixed, and measured. Data were analyzed using Discover MP software, for each sample, results from 3 individual measurements were merged.

[9] = molecular target: T3, dephosphorylated IRE1α (547–977) (Homo sapiens, UniProt O75460); assay: FRET-based IRE1α RNase activity assay, dephosphorylated IRE1α; assay type: biochemical
T3 construct: Human IRE1α kinase and RNase domain (residues 547–977) was subcloned into pLIB plasmid; His tag (with TEV cleavage site) (N, cleaved yes); made in house; host or cells: Sf9 insect cells, baculovirus (Bac-to-Bac)
T3 sequence (O75460 547-977): as above
Method in brief: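 Dephosphorylated human IRE1α (residues 547–977, Sf9-expressed, λ-phosphatase treated), 40 nM, preincubated 30 min with compound at room temperature, then 100 nM FAM/BHQ1 XBP1 RNA added in HEPES pH 7.5 buffer. Fluorescence (485/535 nm) read kinetically for 1 h; inhibition from linear-phase slopes versus DMSO, fitted to IC50.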

Structure (SMILES): CCOC(=O)CCc1c(C)n(C(=O)c2ccccc2)c2ccc(Br)cc12 [IA105]
- Relative IRE1α/Actin ([1]; 0.009 μM): 1.097 and 0.928 and 1.209 and 0.916
- Relative IRE1α/Actin ([1]; 0.027 μM): 1.090 and 0.987 and 1.064 and 0.939
- Relative IRE1α/Actin ([1]; 0.082 μM): 1.050 and 1.155 and 1.127 and 1.034
- Relative IRE1α/Actin ([1]; 0.247 μM): 1.053 and 1.161 and 1.037 and 0.961
- Relative IRE1α/Actin ([1]; 0.741 μM): 0.957 and 1.053 and 0.856 and 0.910
- Relative IRE1α/Actin ([1]; 2.22 μM): 1.022 and 0.873 and 1.063 and 1.025
- Relative IRE1α/Actin ([1]; 6.67 μM): 0.890 and 0.939 and 0.992 and 0.722
- Relative IRE1α/Actin ([1]; 20 μM): 1.131 and 1.096 and 0.934 and 0.949
- Relative IRE1α/Actin ([2]; 0.009 μM): 0.982 and 0.954 and 1.279 and 1.057
- Relative IRE1α/Actin ([2]; 0.027 μM): 1.271 and 1.075 and 1.281 and 1.112
- Relative IRE1α/Actin ([2]; 0.082 μM): 0.845 and 0.871 and 0.924 and 0.835
- Relative IRE1α/Actin ([2]; 0.247 μM): 0.966 and 1.085 and 1.076 and 0.890
- Relative IRE1α/Actin ([2]; 0.741 μM): 0.990 and 1.042 and 1.123 and 0.879
- Relative IRE1α/Actin ([2]; 2.22 μM): 1.133 and 1.010 and 1.231 and 1.072
- Relative IRE1α/Actin ([2]; 6.67 μM): 1.059 and 0.972 and 1.144 and 0.971
- Relative IRE1α/Actin ([2]; 20 μM): 1.034 and 0.915 and 0.978 and 0.882
- Relative IRE1α/Actin ([3]; 0.003 μM): 1.012 and 1.008 and 1.050 and 0.980
- Relative IRE1α/Actin ([3]; 0.009 μM): 0.917 and 0.954 and 1.053 and 0.909
- Relative IRE1α/Actin ([3]; 0.027 μM): 1.104 and 0.811 and 1.025 and 1.043
- Relative IRE1α/Actin ([3]; 0.082 μM): 0.794 and 0.825 and 1.037 and 0.844
- Relative IRE1α/Actin ([3]; 0.247 μM): 0.885 and 0.861 and 0.831 and 0.823
- Relative IRE1α/Actin ([3]; 0.741 μM): 0.783 and 0.766 and 0.908 and 0.750
- Relative IRE1α/Actin ([3]; 2.22 μM): 0.956 and 0.812 and 1.017 and 0.944
- Relative IRE1α/Actin ([3]; 6.67 μM): 0.712 and 0.683 and 0.754 and 0.735
- Relative IRE1α/Actin ([3]; 20 μM): 1.089 and 1.044 and 0.863 and 0.952
- Relative XBP1s/Actin ([4]; 0.003 μM): 11.684 and 10.815 and 12.821 and 10.854
- Relative XBP1s/Actin ([4]; 0.009 μM): 11.469 and 10.431 and 11.317 and 10.144
- Relative XBP1s/Actin ([4]; 0.027 μM): 12.267 and 11.074 and 12.013 and 10.900
- Relative XBP1s/Actin ([4]; 0.082 μM): 8.652 and 8.438 and 8.782 and 8.518
- Relative XBP1s/Actin ([4]; 0.247 μM): 4.629 and 4.592 and 4.962 and 3.379
- Relative XBP1s/Actin ([4]; 0.741 μM): 1.283 and 1.309 and 1.516 and 1.277
- Relative XBP1s/Actin ([4]; 2.22 μM): 1.103 and 1.024 and 1.015 and 0.976
- Relative XBP1s/Actin ([4]; 6.67 μM): 0.958 and 0.872 and 0.904 and 0.841
- Relative XBP1s/Actin ([4]; 20 μM): 1.096 and 1.163 and 1.053 and 0.889
- Relative XBP1s/Actin ([5]; 0.009 μM): 5.428 and 5.195 and 5.7981 and 4.548
- Relative XBP1s/Actin ([5]; 0.027 μM): 5.989 and 4.76 and 5.372 and 4.813
- Relative XBP1s/Actin ([5]; 0.082 μM): 5.025 and 4.655 and 4.826 and 4.338
- Relative XBP1s/Actin ([5]; 0.247 μM): 4.351 and 4.263 and 4.713 and 3.571
- Relative XBP1s/Actin ([5]; 0.741 μM): 2.654 and 2.493 and 2.725 and 2.232
- Relative XBP1s/Actin ([5]; 2.22 μM): 1.206 and 0.9713 and 1.3073 and 1.15
- Relative XBP1s/Actin ([5]; 6.67 μM): 1.256 and 1.21 and 1.297 and 1.076
- Relative XBP1s/Actin ([5]; 20 μM): 1.065 and 0.9931 and 0.9536 and 0.8918
- Relative XBP1s/Actin ([6]; 0.009 μM): 2.671 and 2.32 and 2.971 and 2.381
- Relative XBP1s/Actin ([6]; 0.027 μM): 2.362 and 2.303 and 2.482 and 2.4563
- Relative XBP1s/Actin ([6]; 0.082 μM): 2.039 and 2.057 and 2.192 and 2.023
- Relative XBP1s/Actin ([6]; 0.247 μM): 1.808 and 1.675 and 1.769 and 1.486
- Relative XBP1s/Actin ([6]; 0.741 μM): 1.216 and 1.256 and 1.279 and 1.145
- Relative XBP1s/Actin ([6]; 2.22 μM): 1.073 and 0.792 and 1.044 and 0.8663
- Relative XBP1s/Actin ([6]; 6.67 μM): 1.0995 and 1.154 and 1.208 and 1.113
- Relative XBP1s/Actin ([6]; 20 μM): 1.054 and 1.019 and 1.028 and 0.9077

Structure (SMILES): COCCOCCc1c(C)c2cc(OC)c(O)c(C=O)c2oc1=O [MCK9989]
- IC50 (IRE1α): 0.29 µM

Structure (SMILES): Cc1cc(=O)oc2c(C=O)c(O)ccc12 [Compound 4μ8c]
- IC50 (IRE1α): 0.076 µM

Structure (SMILES): O=S(=O)(N=Cc1c(O)ccc2ccccc12)c1cccs1 [STF-083010]
- IC50 (IRE1α): 25 µM

Structure (SMILES): CN1CCC(CNc2cc(Cl)nn3c(-c4cc5nc(Nc6ccccc6)[nH]c5cc4F)cnc23)CC1 [Compound 31]
- IC50 (IRE1α): 0.08 µM

Structure (SMILES): CC1(c2nc(-c3ccc(NC(=O)Nc4cccc(F)c4)c4ccccc34)c3c(N)nccn23)CC1 [KIRA7]
- IC50 (IRE1α): 0.11 µM

Structure (SMILES): COc1cc2c(C)c(CC(=O)N3CCOCC3)c(=O)oc2c(C=O)c1O [MCK8866]
- IC50 (IRE1α): 0.39 µM

Structure (SMILES): Cc1ccc(C)c(NC(=O)NC(C)CCc2ccc(O)cc2)c1 (stereo not drawn) [Compound Z4P]
- IC50 (IRE1α): 3.14 µM

Structure (SMILES): CN[C@@H]1C[C@H]2O[C@@](C)([C@@H]1OC)n1c3ccccc3c3c4c(c5c6ccccc6n2c5c31)C(=O)NC4 [STS, staurosporine, reference compound]
- effect on p-IRE1α RNase activity in the FRET assay [7]: did not affect the RNase activity
- effect on p-IRE1α dimerization/oligomerization [8]: did not affect the dimerization and oligomerization
- effect on IRE1α RNase activity in the FRET assay [9]: activated the RNase activity
